Paper PMC4774972, “Activity and Predicted Nephrotoxicity of Synthetic Antibiotics Based on Polymyxin B” (Journal of Medicinal Chemistry, 2016)
Converted amounts (≈) assume the structure as drawn. Read-outs that look alike come from different tables or passages of the source. Bridge positions count the residues as written; N and C are the ends. Square brackets hold non-standard residues; d marks the D form. Peptide text beside a SMILES is read from it. * marks the point of attachment. Phe(4-NH2) = Nc1ccc(C[C@H](N)C(=O)O)cc1; dDab = NCC[C@@H](N)C(=O)O; Octanoyl = CCCCCCCC(=O)*; Dab = NCC[C@H](N)C(=O)O

Legend:
[1] = tested on: K. pneumoniae CI 138-16357-20362, PmxR; assay: microbe, parasite or virus in culture; format: cell-based, Klebsiella pneumoniae; details: carbapenem & polymyxin resistant clinical isolate; MHB, 5 × 10^5 CFU/mL, 18 h at 37 °C
Protocol: (§1) Bacteria were either obtained from American Type Culture Collection (ATCC; Manassas, VA, USA) or independent academic clinical isolate collections, as listed in Table S2. Bacteria were cultured in nutrient broth (NB; Bacto Laboratories, catalog no. 234000) or Muller Hinton broth (MHB; Bacto Laboratories, catalog no. 211443) at 37 °C overnight with shaking (∼180 rpm). A sample of each culture was then diluted 50-fold in fresh MHB and incubated at 37 °C for 1.5–3 h with shaking (∼180 rpm). Compound stock solutions were prepared as 0.64 or 2.56 mg/mL in water. The compounds, at twice the final desired concentration, were serially diluted 2-fold across the wells of 96-well plates (Polystyrene, Corning, catalogue No. 3370). Mid log phase bacterial cultures (after 1.5–3 h incubation) were diluted to a final concentration of 5 × 10^5 colony forming units (CFU)/mL, and 50 μL was added to each well giving a final compound concentration range of 32 μg/mL to 0.015 μg/mL (128–0.06 μg/mL for colistin and polymyxin B against the polymyxin resistant clinical isolates). MICs were determined visually after 18 h of incubation at 37 °C, with the MIC defined as the lowest compound concentration at which no bacterial growth was visible.
(§2) Table S2. Bacterial strains used for Minimum Inhibitory Concentration (MIC) […]
(§3) Organism Strain Strain description Strain Source
(§4) Escherichia coli ATCC 25922 FDA strain Seattle 1946 ATCC
(§5) Klebsiella pneumoniae ATCC 13883 Control strain ATCC
(§6) Klebsiella pneumoniae ATCC 700603 Multi-drug resistant ATCC
(§7) Klebsiella pneumoniae BAA-2146 Metallo-beta-lactamase- ATCC
(§8) Acinetobacter baumannii ATCC 19606 Type strain ATCC
(§9) Pseudomonas aeruginosa ATCC 27853 Type strain ATCC
(§10) Pseudomonas aeruginosa FADDI-PA070 Clinical isolate, Nation and Li labs, polymyxin resistant Monash University
(§11) Clinical isolate, Wang Hengzhuang, Pseudomonas aeruginosa PA9704 polymyxin resistant University Hospital of […]
(§12) Ptyela Clinical isolate, Ilias Karaiskos and Acinetobacter baumannii Carbapenem & Helen Giamarellou
(§13) Clinical isolate, Medicine, Hygeia
(§14) Klebsiella pneumoniae Koprana Carbapenem, & General Hospital, […]
(§15) Clinical isolate, (Instituto Dante […]
(§16) polymyxin resistant Cardiologia, São […]

[2] = tested on: K. pneumoniae CI Koprana 100650661:1, PmxR; assay: microbe, parasite or virus in culture; format: cell-based, Klebsiella pneumoniae; details: carbapenem & polymyxin resistant clinical isolate; MHB, 5 × 10^5 CFU/mL, 18 h at 37 °C
Protocol: as §1, §2, §3, §4, §5, §6, §7, §8, §9, §10, §11, §12, §13, §14, §15, §16

HepG2 = details: CC50 HepG2 (µM)
[3] = tested on: P. aeruginosa PA9704, PmxR; details: MIC P. aeruginosa PA9704, PmxR (µg/mL)
[4] = tested on: P. aeruginosa FADDI-PA070, PmxR; details: MIC P. aeruginosa FADDI-PA070, PmxR (µg/mL)
[5] = tested on: K. pneumoniae CI 138-16357-20362, PmxR; details: MIC K. pneumoniae CI 138-16357-20362, PmxR (µg/mL)
[6] = tested on: A. baumannii CI Ptyela 100734512:2, PmxR; details: MIC A. baumannii CI Ptyela 100734512:2, PmxR (µg/mL)
[7] = tested on: S. aureus ATCC 25923, MSSA; details: MIC S. aureus ATCC 25923, MSSA (µg/mL)
[8] = tested on: K. pneumoniae CI Koprana 100650661:1, PmxR; details: MIC K. pneumoniae CI Koprana 100650661:1, PmxR (µg/mL)
A. baumannii ATCC 19606 = details: MIC A. baumannii ATCC 19606 (µg/mL)
K. pneumoniae ATCC 13883 = details: MIC K. pneumoniae ATCC 13883 (µg/mL)
[9] = tested on: S. aureus ATCC 25923, MSSA; assay: microbe, parasite or virus in culture; format: cell-based, Staphylococcus aureus
Protocol: as §1, §2, §3, §4, §5, §6, §7, §8, §9, §10, §11, §12, §13, §14, §15, §16

HepG2 cells = assay: Cytotoxicity assay (resazurin assay); format: cell-based, human; details: 4000 cells/well, 24 h incubation with compound, fluorescence 560/590
Protocol: Cytotoxicity to HEK293 and HepG2 cells was determined using the resazurin assay.[67],[68] […] Compounds were then added into each well. After 24 h incubation, 5 μM resazurin was added per well and incubated at 37 °C for 2 h. Fluorescence intensity was then read using a Polarstar Omega with excitation/emission 560/590. The data were then analyzed using GraphPad Prism 6 software. CC50 values were determined using GraphPad Prism 6 software (Inc. La Jolla, CA).

[10] = tested on: A. baumannii CI Ptyela 100734512:2, PmxR; assay: microbe, parasite or virus in culture; format: cell-based, Acinetobacter baumannii; details: carbapenem & polymyxin resistant clinical isolate; MHB, 5 × 10^5 CFU/mL, 18 h at 37 °C
Protocol: as §1, §2, §3, §4, §5, §6, §7, §8, §9, §10, §11, §12, §13, §14, §15, §16

Compound | MIC K. pneumoniae CI 138-16357-20362, PmxR [1] | MIC K. pneumoniae CI Koprana 100650661:1, PmxR [2] | CC50 (HepG2) | MIC [3] | MIC [4] | MIC [5] | MIC [6] | MIC [7] | MIC [8] | MIC (A. baumannii ATCC 19606) | MIC (K. pneumoniae ATCC 13883) | MIC S. aureus ATCC 25923, MSSA ([9]; ATCC 25923, 18 h) | HepG2 - CC50 (HepG2 cells) | MIC A. baumannii CI Ptyela 100734512:2, PmxR [10] | MIC ([9]; Staphylococcus aureus, 18 h, read-out: MIC S. aureus ATCC 25923, MSSA)
CCCCCCCC(=O)N[C@@H](CCN)C(=O)N[C@H](C(=O)N[C@@H](CCN)C(=O)N[C@H]1CCNC(=O)[C@H]([C@@H](C)O)NC(=O)[C@H](CCNC(=O)[C@@H](N)CCCNC(=N)N)NC(=O)[C@H](CCN)NC(=O)[C@H](CC(C)C)NC(=O)[C@@H](Cc2ccccc2)NC(=O)[C@H](CCN)NC1=O)[C@@H](C)O [Compound 18] (Octanoyl-[Dab]T[Dab][Dab][Dab][dF]L[Dab][Dab](Arg)T; lactam 4-C) | >32 µg/mL | >32 µg/mL | > 300 µM | > 32 µg/mL | > 32 µg/mL | > 32 µg/mL | > 32 µg/mL | > 32 µg/mL | > 32 µg/mL | – | – | – | – | – | –
CCCCCCCC(=O)N[C@@H](CCN)C(=O)N[C@H](C(=O)N[C@@H](CCN)C(=O)N[C@H]1CCNC(=O)[C@H]([C@@H](C)O)NC(=O)[C@H](CCNC(=O)[C@@H](N)CCC(=O)O)NC(=O)[C@H](CCN)NC(=O)[C@H](CC(C)C)NC(=O)[C@@H](Cc2ccccc2)NC(=O)[C@H](CCN)NC1=O)[C@@H](C)O [Compound 19] (Octanoyl-[Dab]T[Dab][Dab][Dab][dF]L[Dab][Dab](Glu)T; lactam 4-C) | >32 µg/mL | >32 µg/mL | > 300 µM | > 32 µg/mL | > 32 µg/mL | > 32 µg/mL | > 32 µg/mL | > 32 µg/mL | > 32 µg/mL | – | – | – | – | – | –
CCCCCCCC(=O)N[C@@H](CCN)C(=O)N[C@H](C(=O)N[C@@H](CCN)C(=O)N[C@H]1CCNC(=O)[C@H]([C@@H](C)O)NC(=O)[C@H](Cc2ccc(N)cc2)NC(=O)[C@H](CCN)NC(=O)[C@H](CC(C)C)NC(=O)[C@@H](Cc2ccccc2)NC(=O)[C@H](CCN)NC1=O)[C@@H](C)O [Compound 20] (Octanoyl-[Dab]T[Dab][Dab][Dab][dF]L[Dab][Phe(4-NH2)]T; lactam 4-C) | >32 µg/mL | >32 µg/mL | > 300 µM | > 32 µg/mL | > 32 µg/mL | > 32 µg/mL | > 32 µg/mL | > 32 µg/mL | > 32 µg/mL | > 32 µg/mL | > 32 µg/mL | – | – | – | –
CCCCCCCC(=O)N[C@@H](CCN)C(=O)N[C@H](C(=O)N[C@@H](CCN)C(=O)N[C@H]1CCNC(=O)[C@H]([C@@H](C)O)NC(=O)[C@H](CCCNC(=N)N)NC(=O)[C@H](CCN)NC(=O)[C@H](CC(C)C)NC(=O)[C@@H](Cc2ccccc2)NC(=O)[C@H](CCN)NC1=O)[C@@H](C)O [Compound 21] (Octanoyl-[Dab]T[Dab][Dab][Dab][dF]L[Dab]RT; lactam 4-C) | >32 µg/mL | >32 µg/mL | > 300 µM | > 32 µg/mL | > 32 µg/mL | > 32 µg/mL | > 32 µg/mL | > 32 µg/mL | > 32 µg/mL | – | > 32 µg/mL | – | – | – | –
CCCCCCCC(=O)N[C@@H](CCN)C(=O)N[C@H](C(=O)N[C@@H](CCN)C(=O)N[C@H]1CCNC(=O)[C@H]([C@@H](C)O)NC(=O)[C@H](CCN)NC(=O)[C@H](CCN)NC(=O)[C@H](CC(C)C)NC(=O)[C@@H](Cc2ccccc2)NC(=O)[C@H](CCNC(=O)[C@@H](N)CCCNC(=N)N)NC1=O)[C@@H](C)O [Compound 31] (Octanoyl-[Dab]T[Dab][Dab][Dab](Arg)[dF]L[Dab][Dab]T; lactam 4-C) | >32 µg/mL | >32 µg/mL | > 300 µM | > 32 µg/mL | > 32 µg/mL | > 32 µg/mL | > 32 µg/mL | > 32 µg/mL | > 32 µg/mL | – | – | – | – | – | –
CCCCCCCC(=O)N[C@@H](CCN)C(=O)N[C@H](C(=O)N[C@@H](CCN)C(=O)N[C@H]1CCNC(=O)[C@H]([C@@H](C)O)NC(=O)[C@H](CCN)NC(=O)[C@H](CCN)NC(=O)[C@H](CC(C)C)NC(=O)[C@@H](Cc2ccccc2)NC(=O)[C@H](CCCNC(=N)N)NC1=O)[C@@H](C)O [Compound 35] (Octanoyl-[Dab]T[Dab][Dab]R[dF]L[Dab][Dab]T; lactam 4-C) | >32 µg/mL | >32 µg/mL | > 300 µM | > 32 µg/mL | > 32 µg/mL | > 32 µg/mL | > 32 µg/mL | > 32 µg/mL | > 32 µg/mL | > 32 µg/mL | > 32 µg/mL | – | – | – | –
CCCCCCCC(=O)N[C@@H](CCN)C(=O)N[C@H](C(=O)N[C@H](CCN)C(=O)N[C@H]1CCNC(=O)[C@H]([C@@H](C)O)NC(=O)[C@H](CCN)NC(=O)[C@H](CCN)NC(=O)[C@H](CC(C)C)NC(=O)[C@@H](Cc2ccccc2)NC(=O)[C@H](CCN)NC1=O)[C@@H](C)O [Compound 36] (Octanoyl-[Dab]T[dDab][Dab][Dab][dF]L[Dab][Dab]T; lactam 4-C) | >32 µg/mL | >32 µg/mL | > 300 µM | – | > 32 µg/mL | > 32 µg/mL | > 32 µg/mL | > 32 µg/mL | > 32 µg/mL | – | – | >32 µg/mL | >300 µM | >32 µg/mL | –
CCCCCCCC(=O)N[C@@H](CCN)C(=O)N[C@H](C(=O)N[C@H](CO)C(=O)N[C@H]1CCNC(=O)[C@H]([C@@H](C)O)NC(=O)[C@H](CCN)NC(=O)[C@H](CCN)NC(=O)[C@H](CC(C)C)NC(=O)[C@@H](Cc2ccccc2)NC(=O)[C@H](CCN)NC1=O)[C@@H](C)O [Compound 37] (Octanoyl-[Dab]T[dS][Dab][Dab][dF]L[Dab][Dab]T; lactam 4-C) | >32 µg/mL | >32 µg/mL | > 300 µM | > 32 µg/mL | > 32 µg/mL | > 32 µg/mL | > 32 µg/mL | > 32 µg/mL | > 32 µg/mL | – | – | – | – | – | –
CCCCCCCC(=O)NCC(=O)N[C@@H](CCN)C(=O)N[C@H](C(=O)N[C@H]1CCNC(=O)[C@H]([C@@H](C)O)NC(=O)[C@H](CCN)NC(=O)[C@H](CCN)NC(=O)[C@H](CC(C)C)NC(=O)[C@@H](Cc2ccccc2)NC(=O)[C@H](CCN)NC1=O)[C@@H](C)O [Compound 41] (Octanoyl-G[Dab]T[Dab][Dab][dF]L[Dab][Dab]T; lactam 4-C) | >32 µg/mL | >32 µg/mL | > 300 µM | > 32 µg/mL | > 32 µg/mL | > 32 µg/mL | > 32 µg/mL | > 32 µg/mL | > 32 µg/mL | > 32 µg/mL | – | – | – | – | –
CN[C@@H](CC(C)C)C(=O)N[C@H]1C(=O)N[C@@H](CC(N)=O)C(=O)N[C@H]2C(=O)N[C@H]3C(=O)N[C@H](C(=O)N[C@@H](C(=O)O)c4cc(O)cc(O)c4-c4cc3ccc4O)[C@H](O)c3ccc(c(Cl)c3)Oc3cc2cc(c3O[C@H]2O[C@@H](CO)[C@H](O)[C@@H](O)[C@@H]2O[C@@H]2C[C@@](C)(N)[C@@H](O)[C@@H](C)O2)Oc2ccc(cc2Cl)[C@H]1O [Vancomycin, reference compound] | – | – | – | – | – | – | – | – | – | – | – | – | >300 µM | – | 2 µg/mL (≈ 1.38 µM)
